Data taken from ChEMBL document CHEMBL2380212, “Synthesis, single crystal and antitumor activities of benzimidazole-quinazoline hybrids” (Bioorg Med Chem Lett, 2013).

Columns and labels:
[1] = n-Octanol-phosphate buffer partition coefficient, log P of the compound at pH 7.4 by shake flask method; format: physicochemical
[2] = test system: BT-549; assay: Cytotoxicity against human BT549 cells at 10 uM after 48 hrs by SRB assay; format: functional; conditions: BT-549, 48 h, read-out: GI
[3] = test system: T47D; assay: Cytotoxicity against human T47D cells at 10 uM after 48 hrs by SRB assay; format: functional; conditions: read-out: GI
[4] = test system: Hs-578T; assay: Cytotoxicity against human Hs578T cells at 10 uM after 48 hrs by SRB assay; format: functional; conditions: read-out: GI
[5] = test system: MCF7; assay: Cytotoxicity against human MCF7 cells at 10 uM after 48 hrs by SRB assay; format: functional; conditions: MCF7, 48 h, read-out: GI
[6] = test system: MDA-MB-231; assay: Cytotoxicity against human MDA-MB-231 cells at 10 uM after 48 hrs by SRB assay; format: functional; conditions: MDA-MB-231, 48 h, read-out: GI
[7] = test system: UO-31; assay: Cytotoxicity against human UO31 cells at 10 uM after 48 hrs by SRB assay; format: functional; conditions: UO-31, 48 h, read-out: GI
[8] = test system: PC-3; assay: Cytotoxicity against human PC3 cells at 10 uM after 48 hrs by SRB assay; format: functional; conditions: PC-3, 48 h, read-out: GI
[9] = test system: TK-10; assay: Cytotoxicity against human TK10 cells at 10 uM after 48 hrs by SRB assay; format: functional; conditions: TK-10, 48 h, read-out: GI
[10] = test system: A498; assay: Cytotoxicity against human A498 cells at 10 uM after 48 hrs by SRB assay; format: functional; conditions: A498, 48 h, read-out: GI
[11] = test system: 786-0; assay: Cytotoxicity against human 786-0 cells at 10 uM after 48 hrs by SRB assay; format: functional; conditions: 786-0, 48 h, read-out: GI
[12] = test system: NCI/ADR-RES; assay: Cytotoxicity against human NCI/ADR-RES cells at 10 uM after 48 hrs by SRB assay; format: functional; conditions: read-out: GI
[13] = test system: OVCAR-8; assay: Cytotoxicity against human OVCAR8 cells at 10 uM after 48 hrs by SRB assay; format: functional; conditions: OVCAR-8, 48 h, read-out: GI
[14] = test system: OVCAR-5; assay: Cytotoxicity against human OVCAR5 cells at 10 uM after 48 hrs by SRB assay; format: functional; conditions: OVCAR-5, 48 h, read-out: GI
[15] = test system: OVCAR-4; assay: Cytotoxicity against human OVCAR4 cells at 10 uM after 48 hrs by SRB assay; format: functional; conditions: OVCAR-4, 48 h, read-out: GI
[16] = test system: IGROV-1; assay: Cytotoxicity against human IGROV1 cells at 10 uM after 48 hrs by SRB assay; format: functional; conditions: IGROV-1, 48 h, read-out: GI
[17] = test system: UACC-62; assay: Cytotoxicity against human UACC62 cells at 10 uM after 48 hrs by SRB assay; format: functional; conditions: UACC-62, 48 h, read-out: GI
[18] = test system: UACC-257; assay: Cytotoxicity against human UACC257 cells at 10 uM after 48 hrs by SRB assay; format: functional; conditions: UACC-257, 48 h, read-out: GI
[19] = test system: SK-MEL-28; assay: Cytotoxicity against human SK-MEL-28 cells at 10 uM after 48 hrs by SRB assay; format: functional; conditions: SK-MEL-28, 48 h, read-out: GI
[20] = test system: SK-MEL-5; assay: Cytotoxicity against human SK-MEL-5 cells at 10 uM after 48 hrs by SRB assay; format: functional; conditions: SK-MEL-5, 48 h, read-out: GI
[21] = test system: SK-MEL-2; assay: Cytotoxicity against human SK-MEL-2 cells at 10 uM after 48 hrs by SRB assay; format: functional; conditions: SK-MEL-2, 48 h, read-out: GI
[22] = test system: MDA-MB-435; assay: Cytotoxicity against human MDA-MB-435 cells at 10 uM after 48 hrs by SRB assay; format: functional; conditions: MDA-MB-435, 48 h, read-out: GI
[23] = test system: LOX IMVI; assay: Cytotoxicity against human LOXIMVI cells at 10 uM after 48 hrs by SRB assay; format: functional; conditions: read-out: GI
[24] = test system: SNB-19; assay: Cytotoxicity against human SNB19 cells at 10 uM after 48 hrs by SRB assay; format: functional; conditions: SNB-19, 48 h, read-out: GI
[25] = test system: SF-295; assay: Cytotoxicity against human SF295 cells at 10 uM after 48 hrs by SRB assay; format: functional; conditions: SF-295, 48 h, read-out: GI
[26] = test system: SW-620; assay: Cytotoxicity against human SW620 cells at 10 uM after 48 hrs by SRB assay; format: functional; conditions: SW-620, 48 h, read-out: GI
[27] = test system: KM12; assay: Cytotoxicity against human KM12 cells at 10 uM after 48 hrs by SRB assay; format: functional; conditions: KM12, 48 h, read-out: GI
[28] = test system: HT-29; assay: Cytotoxicity against human HT-29 cells at 10 uM after 48 hrs by SRB assay; format: functional; conditions: HT-29, 48 h, read-out: GI
[29] = test system: HCT-15; assay: Cytotoxicity against human HCT15 cells at 10 uM after 48 hrs by SRB assay; format: functional; conditions: HCT-15, 48 h, read-out: GI
[30] = test system: HCT-116; assay: Cytotoxicity against human HCT116 cells at 10 uM after 48 hrs by SRB assay; format: functional; conditions: HCT-116, 48 h, read-out: GI
[31] = test system: COLO 205; assay: Cytotoxicity against human COLO205 cells at 10 uM after 48 hrs by SRB assay; format: functional; conditions: COLO 205, 48 h, read-out: GI
[32] = test system: NCI-H522; assay: Cytotoxicity against human NCI-H522 cells at 10 uM after 48 hrs by SRB assay; format: functional; conditions: NCI-H522, 48 h, read-out: GI
[33] = test system: NCI-H460; assay: Cytotoxicity against human NCI-H460 cells at 10 uM after 48 hrs by SRB assay; format: functional; conditions: NCI-H460, 48 h, read-out: GI
[34] = test system: NCI-H226; assay: Cytotoxicity against human NCI-H226 cells at 10 uM after 48 hrs by SRB assay; format: functional; conditions: NCI-H226, 48 h, read-out: GI
[35] = test system: NCI-H23; assay: Cytotoxicity against human NCI-H23 cells at 10 uM after 48 hrs by SRB assay; format: functional; conditions: NCI-H23, 48 h, read-out: GI
[36] = test system: HOP-92; assay: Cytotoxicity against human HOP92 cells at 10 uM after 48 hrs by SRB assay; format: functional; conditions: HOP-92, 48 h, read-out: GI
[37] = Cytotoxicity against human EKVX cells at 10 uM after 48 hrs by SRB assay; format: functional; conditions: read-out: GI
[38] = test system: A549; assay: Cytotoxicity against human A549 cells at 10 uM after 48 hrs by SRB assay; format: functional; conditions: A549, 48 h, read-out: GI
[39] = test system: SR; assay: Cytotoxicity against human SR cells at 10 uM after 48 hrs by SRB assay; format: functional; conditions: read-out: GI
[40] = test system: MOLT-4; assay: Cytotoxicity against human MOLT4 cells at 10 uM after 48 hrs by SRB assay; format: functional; conditions: MOLT-4, 48 h, read-out: GI
[41] = test system: RPMI-8226; assay: Cytotoxicity against human RPMI8226 cells at 10 uM after 48 hrs by SRB assay; format: functional; conditions: RPMI-8226, 48 h, read-out: GI
[42] = test system: K562; assay: Cytotoxicity against human K562 cells at 10 uM after 48 hrs by SRB assay; format: functional; conditions: K562, 48 h, read-out: GI

C=CCn1c(C)nc2ccc(Nc3nc(Cl)nc4ccccc34)cc21
logD [1]: 2.1 | inhibition of growth at 10 µM [2]: < 10% | inhibition of growth at 10 µM [3]: 18.5% | inhibition of growth at 10 µM [4]: < 10% | inhibition of growth at 10 µM [5]: < 10% | inhibition of growth at 10 µM [6]: 10.1% | inhibition of growth at 10 µM [7]: < 10% | inhibition of growth at 10 µM [8]: 18% | inhibition of growth at 10 µM [9]: < 10% | inhibition of growth at 10 µM [10]: 44.5% | inhibition of growth at 10 µM [11]: 12.2% | inhibition of growth at 10 µM [12]: < 10% | inhibition of growth at 10 µM [13]: < 10% | inhibition of growth at 10 µM [14]: < 10% | inhibition of growth at 10 µM [15]: < 10% | inhibition of growth at 10 µM [16]: < 10% | inhibition of growth at 10 µM [17]: < 10% | inhibition of growth at 10 µM [18]: < 10% | inhibition of growth at 10 µM [19]: < 10% | inhibition of growth at 10 µM [20]: < 10% | inhibition of growth at 10 µM [21]: < 10% | inhibition of growth at 10 µM [22]: < 10% | inhibition of growth at 10 µM [23]: < 10% | inhibition of growth at 10 µM [24]: < 10% | inhibition of growth at 10 µM [25]: 15.2% | inhibition of growth at 10 µM [26]: < 10% | inhibition of growth at 10 µM [27]: < 10% | inhibition of growth at 10 µM [28]: < 10% | inhibition of growth at 10 µM [29]: < 10% | inhibition of growth at 10 µM [30]: < 10% | inhibition of growth at 10 µM [31]: < 10% | inhibition of growth at 10 µM [32]: < 10% | inhibition of growth at 10 µM [33]: < 10% | inhibition of growth at 10 µM [34]: < 10% | inhibition of growth at 10 µM [35]: < 10% | inhibition of growth at 10 µM [36]: < 10% | inhibition of growth at 10 µM [37]: < 10% | inhibition of growth at 10 µM [38]: 18.5% | inhibition of growth at 10 µM [39]: < 10% | inhibition of growth at 10 µM [40]: 21.3% | inhibition of growth at 10 µM [41]: 24.7% | inhibition of growth at 10 µM [42]: 25.2%
